Molecular target: Epidermal growth factor receptor (Homo sapiens, UniProt P00533)
Test: Concentration required to inhibit autophosphorylation of cytoplasmic domain of epidermal growth factor receptor (EGFR)

Chain of Epidermal growth factor receptor (P00533 whole entry, the tested form may be a part): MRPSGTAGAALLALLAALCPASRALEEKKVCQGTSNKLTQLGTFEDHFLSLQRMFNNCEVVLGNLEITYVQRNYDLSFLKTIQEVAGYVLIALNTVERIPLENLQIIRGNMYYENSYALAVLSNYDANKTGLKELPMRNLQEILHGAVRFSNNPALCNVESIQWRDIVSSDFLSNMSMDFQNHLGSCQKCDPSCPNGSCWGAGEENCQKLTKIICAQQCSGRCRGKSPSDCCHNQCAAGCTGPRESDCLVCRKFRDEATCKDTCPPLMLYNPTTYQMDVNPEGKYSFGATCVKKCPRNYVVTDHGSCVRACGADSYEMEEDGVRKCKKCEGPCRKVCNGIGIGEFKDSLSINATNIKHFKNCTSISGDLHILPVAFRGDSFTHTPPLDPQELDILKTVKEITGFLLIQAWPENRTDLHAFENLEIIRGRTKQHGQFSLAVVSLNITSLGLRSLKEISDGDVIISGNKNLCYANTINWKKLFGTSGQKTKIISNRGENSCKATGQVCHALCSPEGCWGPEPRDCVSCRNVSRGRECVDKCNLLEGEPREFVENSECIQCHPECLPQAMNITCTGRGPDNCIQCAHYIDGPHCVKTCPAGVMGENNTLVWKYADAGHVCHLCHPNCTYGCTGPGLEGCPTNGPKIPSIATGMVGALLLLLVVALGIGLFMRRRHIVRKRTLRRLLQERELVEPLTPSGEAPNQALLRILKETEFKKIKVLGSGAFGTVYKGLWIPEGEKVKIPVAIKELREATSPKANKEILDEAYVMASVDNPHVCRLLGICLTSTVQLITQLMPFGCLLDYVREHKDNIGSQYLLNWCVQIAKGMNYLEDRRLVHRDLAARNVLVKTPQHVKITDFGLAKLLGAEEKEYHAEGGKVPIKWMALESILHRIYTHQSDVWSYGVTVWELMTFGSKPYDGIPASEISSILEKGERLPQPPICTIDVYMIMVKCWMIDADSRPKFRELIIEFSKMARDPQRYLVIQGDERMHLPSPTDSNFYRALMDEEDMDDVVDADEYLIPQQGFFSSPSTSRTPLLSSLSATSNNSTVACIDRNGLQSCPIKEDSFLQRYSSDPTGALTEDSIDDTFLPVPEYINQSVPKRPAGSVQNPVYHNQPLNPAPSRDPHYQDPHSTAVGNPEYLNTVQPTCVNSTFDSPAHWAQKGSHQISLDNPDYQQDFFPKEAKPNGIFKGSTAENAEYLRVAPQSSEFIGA

`COC[C@@H]1CCCN1CC#CC(=O)Nc1ccc2ncc(C#N)c(Nc3cccc(Br)c3)c2c1` showed an IC50 of 0.15 µM.
